The subject of one experiment is myoblasts (筋芽細胞). Put plainly: Myoblast differentiation promotion test, count of beating myotubes (Example 3). The format is cell-based. To be noted: 1 μM, 10 days after cell seeding, cells from ICR mouse fetal thigh muscle.
A short description of experiment [1]: Body fat reduction in high-fat-diet mice, epididymal fat weight (Example 4). To be noted: 10 weeks, C57BL/6J male mice, 6-compartment cage, high-fat diet with oleanolic acid or oleuropein 50 mg/kg diet, or Oleavita 1000 mg/kg diet. The format is in vivo, mouse.
The nature of experiment [2]: Plasma insulin concentration in high-fat-diet mice (Example 5). In kind it is in vivo, mouse. The conditions noted are these: 10 weeks, C57BL/6J male mice, 6-compartment cage, high-fat diet with oleanolic acid or oleuropein 50 mg/kg diet, or Oleavita 1000 mg/kg diet.
Experiment [3] is described as follows: Plasma leptin concentration in high-fat-diet mice (Example 5). In kind it is in vivo, mouse. To be noted: 10 weeks, C57BL/6J male mice, 6-compartment cage, high-fat diet with oleanolic acid or oleuropein 50 mg/kg diet, or Oleavita 1000 mg/kg diet.

The values that follow come from patent publication JP2016199536A, “筋肉増強およびメタボリックシンドローム改善ならびにqol改善のための組成物” (NUTRITION ACT CO Ltd, priority 2015, dated 2016).

With `CC1(C)CC[C@]2(C(=O)O)CC[C@]3(C)C(=CC[C@@H]4[C@@]5(C)CC[C@H](O)C(C)(C)[C@@H]5CC[C@]43C)[C@@H]2C1` [オレアノール酸], the “beating myotube cells compared with control” value with myoblasts (筋芽細胞) is on record as “わずかに増加”. The “fat-reducing effect compared with high-fat diet group (HF)” value in experiment [1] was “脂肪減少効果が見られなかった”. Moreover, the “suppression of plasma insulin concentration” value in experiment [2] is “抑制効果がなかった”. The plasma leptin concentration result in experiment [3] was “高値”.

For the molecule `C/C=C1/[C@H](O[C@@H]2O[C@H](CO)[C@@H](O)[C@H](O)[C@H]2O)OC=C(C(=O)OC)[C@H]1CC(=O)OCCc1ccc(O)c(O)c1` [オレウロペイン], in the experiment with myoblasts (筋芽細胞), the “beating myotube cells compared with control” value is recorded as “わずかに増加”. In addition, in experiment [1], the “fat-reducing effect compared with high-fat diet group (HF)” value is reported as “脂肪減少効果が見られなかった”. The “suppression of plasma insulin concentration” value in experiment [2] is on record as “抑制効果がなかった”. Moreover, in experiment [3], the plasma leptin concentration result is “高値”.
